Experimental data published in US10023841B2, “Methods and compositions for treating breast cancer with dendritic cell vaccines” (Baylor Research Institute, priority 2014, dated 2018).

System: TAK1
Experiment: Phosphorylated TAK1 (FACS) in monocytes or mDCs
Assay type: cell-based, human
Conditions: monocytes; 10 ng/ml TGF-β1 for 5-90 minutes

In the case of “TGF-β1: soluble TGF-β1 used to treat monocytes”, the “phosphorylation of TAK1” value is reported as “induce phosphorylation of TAK1 as early as 15 minutes”.
